In US11352396B2, “Antimicrobial peptides and methods of using same” (Zoetis Services LLC, priority 2017, dated 2022):

Legend:
[1] = tested on: Canine-derived epithelial keratinocyte (CPEK) cells; assay type: cell-based
In short: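 Viability was read by CellTiter-Glo luminescence after overnight exposure (37 °C, 5% CO2) of canine keratinocytes to a peptide range of 50–0.05 μM. Percent effect used phosphate buffer as the zero control and 0.1% Triton X-100 as the full-effect control.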

E. coli ATCC 25922 = assay type: cell-based; conditions: E. coli 25922, Table 6
Procedure: (§1) Peptides according to SEQ ID NOs as listed in Table 1 were prepared by a commercial manufacturer (CS Bio, Menlo Park, Calif.) using solid phase synthesis. Antimicrobial activity was assessed by determining the Minimal Inhibitory Concentration (MIC) against S. aureus and E. coli. Briefly, Microbroth MICs were performed using CLSI methodology (VET01-S2). For S. aureus and E. coli ATCC strains, TSA with 5% lysed horse blood agar was used for overnight culturing at 37° C. ambient air. A 0.5 mM stock for each peptide was made with cell culture water, 0.01% acetic acid and serially diluted and spotted (10 μL) in a 96-well plate for in assay dose titration concentration of 50 μM to 0.05 μM. 0.5 McFarland Standard of each strain was diluted 1:250 in Mueller-Hinton Broth (MHB). 90 μL of culture suspension was then added upon drug in the 96-well plate for overnight incubation for 18-20 hours. The MIC was determined visually at the first well of no visible growth at the corresponding concentration.

S. aureus ATCC 29213 = assay type: cell-based; set-up: key to SA 29213: MIC in μM (lowest conc. with no visible growth); conditions: S. aureus 29213, Table 6
Procedure: as §1

cRBC = assay type: cell-based, canine
In short: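 Percent lysis, measured by absorbance at 405 nm, used 1% Triton X-100 as full effect and phosphate buffer as zero. Peptides spanned 50 µM–0.05 µM and were held with plasma-depleted washed erythrocytes at 37 °C for 1 h.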

[2] = tested on: MRSP (Methicillin-Resistant Staphylococcus pseudintermedius); assay: MIC against selected strains of MRSP; assay type: cell-based; set-up: key to MIC MRSP 72192 / MIC MRSP 76923 / MR 71994 / Mr 88493 / MR 72035 / MR 72192 / MR 76923 / MR 79882 / MR 80279 / MR 81926 / MR 86002 / MR 87665: MIC in μM (visual, first well with no growth); conditions: for MR 71994: MRSP strain 71994, Table 6; for MR 72035: MRSP strain 72035, Table 6; for MR 72192: MRSP strain 72192, Table 6; for MR 76923: MRSP strain 76923, Table 6; for MR 79882: MRSP strain 79882, Table 6; for MR 80279: MRSP strain 80279, Table 6; for MR 81926: MRSP strain 81926, Table 6; for MR 86002: MRSP strain 86002, Table 6; for MR 87665: MRSP strain 87665, Table 6; for Mr 88493: MRSP strain 88493, Table 6
In short: (§2)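 MIC read by eye as the first well showing no growth after 18–20 h incubation. Cultures at 0.5 McFarland were diluted 1:250 in Mueller-Hinton broth and exposed to peptide over 50 μM–0.05 μM in the assay, per CLSI VET01-S2 microbroth method.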

[3] = tested on: MSSP (Methicillin-Susceptible Staphylococcus pseudintermedius); assay: MIC against selected strains of MSSP; assay type: cell-based; set-up: MIC MSSP 49051 / MIC MSSP 81923 / MIC MSSP 84250 / Effect on MSSP 86000 / Effect on MSSP 72036 / Effect on MSSP 78032: unit not given beside the values; Effect on MSSP 71990 / Effect on MSSP 86001 / Effect on MSSP 72191 / Effect on MSSP 76986 / Effect on MSSP 77378 / Effect on MSSP 81923 / Effect on MSSP 84250 / Effect on MSSP 84658: unit: µM; conditions: for SP 49051: S. pseudintermedius 49051, Table 6; for Effect on MSSP 71990: strain 71990, Table 5; for Effect on MSSP 72036: strain 72036, Table 5; for Effect on MSSP 72191: strain 72191, Table 5; for Effect on MSSP 76986: strain 76986, Table 5; for Effect on MSSP 77378: strain 77378, Table 5; for Effect on MSSP 78032: strain 78032, Table 5; for Effect on MSSP 81923: strain 81923, Table 5; for Effect on MSSP 84250: strain 84250, Table 5; for Effect on MSSP 84658: strain 84658, Table 5; for Effect on MSSP 86000: strain 86000, Table 5; for Effect on MSSP 86001: strain 86001, Table 5
In short: as §2

Row | Substance | CPEK (50 μM) [1] | EC 25922 (E. coli ATCC 25922) | SA 29213 (S. aureus ATCC 29213) | cRBC (50 μM) (cRBC) | MR 71994 [2] | MR 72035 [2] | MR 72192 [2] | MR 76923 [2] | MR 79882 [2] | MR 80279 [2] | MR 81926 [2] | MR 86002 [2] | MR 87665 [2] | Mr 88493 [2] | SP 49051 [3] | Effect on MSSP 71990 [3] | Effect on MSSP 72036 [3] | Effect on MSSP 72191 [3] | Effect on MSSP 76986 [3] | Effect on MSSP 77378 [3] | further results
1 | 99 (KWCFFVCYRGICYRRCRD; Artificial Antimicrobial peptide) [compound 99] | 19.9 | 1.6 µM | 6.2 | 100.0 | 1.6 | 3.1 | 3.1 | 1.6 | 1.6 | 1.6 | 3.1 | 3.1 | 1.6 | 1.6 | 3.1 | 1.6 | 1.6 | 3.1 | 1.6 | 1.6 | Effect on MSSP 78032 [3]: 1.6; Effect on MSSP 81923 [3]: 1.6; Effect on MSSP 84250 [3]: 3.1; Effect on MSSP 84658 [3]: 3.1; Effect on MSSP 86000 [3]: 3.1; Effect on MSSP 86001 [3]: 1.6
2 | 100 (KWCFWVCYRGICYRRCRD; Artificial Antimicrobial peptide) [compound 100] | 29.5 | 0.8 µM | 6.2 | 100.0 | 1.6 | 3.1 | 1.6 | 1.6 | 1.6 | 1.6 | 1.6 | 1.6 | 1.6 | 3.1 | 1.6 | 1.6 | 1.6 | 3.1 | 1.6 | 3.1 | Effect on MSSP 78032 [3]: 1.6; Effect on MSSP 81923 [3]: 1.6; Effect on MSSP 84250 [3]: 1.6; Effect on MSSP 84658 [3]: 1.6; Effect on MSSP 86000 [3]: 1.6; Effect on MSSP 86001 [3]: 1.6
3 | 102 (KWCFRACYRGICYRRCRD; Artificial Antimicrobial peptide) [compound 102] | −2.1 | 1.6 µM | 6.2 | 23.9 | 3.1 | 3.1 | 1.6 | 1.6 | 1.6 | 1.6 | 1.6 | 1.6 | 1.6 | 3.1 | 1.6 | 1.6 | 1.6 | 3.1 | 1.6 | 0.8 | Effect on MSSP 78032 [3]: 1.6; Effect on MSSP 81923 [3]: 1.6; Effect on MSSP 84250 [3]: 1.6; Effect on MSSP 84658 [3]: 1.6; Effect on MSSP 86000 [3]: 1.6; Effect on MSSP 86001 [3]: 1.6
